What all share (type): cell-based
In test [1] the target is T1, hGIPR (Homo sapiens, UniProt P48546).
T1 sequence (P48546 22-466): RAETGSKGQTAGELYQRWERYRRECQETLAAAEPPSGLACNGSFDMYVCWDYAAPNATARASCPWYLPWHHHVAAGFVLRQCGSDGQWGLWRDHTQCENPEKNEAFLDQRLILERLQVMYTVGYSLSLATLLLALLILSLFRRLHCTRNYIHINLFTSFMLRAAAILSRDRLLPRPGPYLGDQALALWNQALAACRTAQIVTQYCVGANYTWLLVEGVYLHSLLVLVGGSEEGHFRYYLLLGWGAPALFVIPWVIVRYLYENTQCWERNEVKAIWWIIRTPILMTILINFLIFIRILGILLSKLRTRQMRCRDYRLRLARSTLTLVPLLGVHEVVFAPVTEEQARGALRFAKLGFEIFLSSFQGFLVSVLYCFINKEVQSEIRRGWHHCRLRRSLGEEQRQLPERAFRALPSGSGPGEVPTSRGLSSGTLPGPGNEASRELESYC
As to the kind of experiment: Functional cAMP activation in the presence of 0.1% casein (no HSA). The settings on record: read-out: Relative cAMP EC50, hGIPR.

In test [2] the target is T1, hGIPR. As to the kind of experiment: Functional cAMP activity in the presence of 1% HSA. The settings on record: read-out: cAMP Rel EC50, hGIPR.
Test [3] has as its target T2, hGLP-1R (Homo sapiens, UniProt P43220). Nature of the test: Functional cAMP activation in the presence of 0.1% casein (no HSA). The settings on record: read-out: Relative cAMP EC50, hGLP-1R.
The target of test [4] is human GcgR (Homo sapiens, UniProt P47871). Nature of the test: Functional cAMP activity in the presence of 1% HSA. Conditions: read-out: cAMP Rel EC50, hGcgR.
The target of test [5] is hGcgR (Homo sapiens, UniProt P47871). Nature of the test: Functional cAMP activation in the presence of 0.1% casein (no HSA). Conditions: read-out: Relative cAMP EC50, hGcgR.
In test [6] the target is T2, hGLP-1R. As to the kind of experiment: Functional cAMP activity in the presence of 1% HSA. Conditions: read-out: cAMP Rel EC50, hGLP-1R.

Structures are written as SMILES. Starred links: 1 amine or outer side, 2 acyl side, 3 side chain; linkers in the order of their positions; H or OH if unused. Non-standard residues stand in square brackets, D forms with d. Residues, ends and D or L forms follow the SMILES beside them. Groups on a side chain read outwards from the residue. *: point of attachment. C18 diacid = O=C(O)CCCCCCCCCCCCCCCCC(=O)*; αMePhe(2-F) = C[C@](N)(Cc1ccccc1F)C(=O)O; γGlu = O=C(O)[C@H](CCC(=O)[*:2])N[*:1]; AEEA = NCCOCCOCC(=O)O; Aib = CC(C)(N)C(=O)O

The EC50 is the concentration needed to bring the measured effect to its halfway point.
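Throughout, for Relative cAMP EC50, hGIPR: intracellular cAMP rise after 30 min at 37 °C read by HTRF against a standard curve, scaled between buffer alone (0%) and top control ligand concentration (100%), four-parameter fit.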
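Throughout, for Relative cAMP EC50, hGLP-1R: intracellular cAMP rise after 30 min at 37 °C read by HTRF, normalized between buffer only (0%) and maximal control ligand (100%), four-parameter variable-slope fit.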
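Throughout, for Relative cAMP EC50, hGcgR: intracellular cAMP rise after 30 min at 37 °C, read by HTRF against a cAMP standard curve, scaled from buffer only (0%) to maximal control ligand response (100%).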

T2 sequence (P43220 24-463): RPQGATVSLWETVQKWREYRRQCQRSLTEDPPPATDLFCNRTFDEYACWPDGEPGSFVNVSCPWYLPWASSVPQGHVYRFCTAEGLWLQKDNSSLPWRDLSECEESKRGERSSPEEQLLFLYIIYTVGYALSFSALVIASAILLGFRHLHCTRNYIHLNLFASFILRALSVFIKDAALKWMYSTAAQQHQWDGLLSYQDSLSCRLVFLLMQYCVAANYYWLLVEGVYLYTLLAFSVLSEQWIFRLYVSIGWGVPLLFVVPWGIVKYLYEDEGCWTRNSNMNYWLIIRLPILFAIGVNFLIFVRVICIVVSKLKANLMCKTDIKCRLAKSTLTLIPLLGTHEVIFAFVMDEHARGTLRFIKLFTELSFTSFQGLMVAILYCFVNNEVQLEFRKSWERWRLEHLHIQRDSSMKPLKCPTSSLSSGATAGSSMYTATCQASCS
Sequence of hGcgR (P47871 26-477): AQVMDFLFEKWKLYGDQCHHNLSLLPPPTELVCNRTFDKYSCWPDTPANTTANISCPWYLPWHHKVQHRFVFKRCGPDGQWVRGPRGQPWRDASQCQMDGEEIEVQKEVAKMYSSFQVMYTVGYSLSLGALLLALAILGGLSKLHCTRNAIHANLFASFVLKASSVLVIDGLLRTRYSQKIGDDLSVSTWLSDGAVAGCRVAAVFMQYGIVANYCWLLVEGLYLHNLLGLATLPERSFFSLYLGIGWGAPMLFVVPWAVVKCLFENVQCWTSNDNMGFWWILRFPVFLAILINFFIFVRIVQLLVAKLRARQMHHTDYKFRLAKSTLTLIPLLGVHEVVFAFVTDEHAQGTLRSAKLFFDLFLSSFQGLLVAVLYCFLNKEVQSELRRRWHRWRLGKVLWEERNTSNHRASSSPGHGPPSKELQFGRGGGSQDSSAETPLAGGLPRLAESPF
Sequence of human GcgR (P47871 26-477): as above

On to `CC[C@H](C)[C@H](NC(=O)[C@H](Cc1ccccc1)NC(=O)[C@H](C)NC(=O)C(C)(C)NC(=O)[C@H](CCC(N)=O)NC(=O)[C@H](C)NC(=O)[C@H](CCCCNC(=O)COCCOCCNC(=O)CC[C@H](NC(=O)CCCCCCCCCCCCCCCCC(=O)O)C(=O)O)NC(=O)[C@H](CCCCN)NC(=O)[C@H](CC(=O)O)NC(=O)[C@H](CC(C)C)NC(=O)[C@H](CC(C)C)NC(=O)[C@@H](NC(=O)[C@H](CO)NC(=O)[C@H](Cc1ccc(O)cc1)NC(=O)[C@H](CC(=O)O)NC(=O)[C@H](CO)NC(=O)[C@@H](NC(=O)[C@](C)(Cc1ccccc1F)NC(=O)[C@@H](NC(=O)CNC(=O)[C@H](CCC(N)=O)NC(=O)C(C)(C)NC(=O)[C@@H](N)Cc1c[nH]cn1)[C@@H](C)O)[C@@H](C)O)[C@@H](C)CC)C(=O)N[C@@H](CCC(=O)O)C(=O)N[C@@H](Cc1ccc(O)cc1)C(=O)N[C@@H](CC(C)C)C(=O)N[C@@H](CCC(=O)O)C(=O)N[C@@H](CCC(=O)O)C(=O)NCC(=O)NCC(=O)N1CCC[C@H]1C(=O)N[C@@H](CO)C(=O)N[C@@H](CO)C(=O)NCC(=O)N[C@@H](C)C(=O)N1CCC[C@H]1C(=O)N1CCC[C@H]1C(=O)N1CCC[C@H]1C(=O)N[C@@H](CO)C(N)=O` [Example 425] (H-H[Aib]QGT[αMePhe(2-F)]TSDYSILLDKK([AEEA-γGlu-C18 diacid])AQ[Aib]AFIEYLEEGGPSSGAPPPS-NH2; N-terminus assumed), for which the EC50 in test [1] turned out to be 0.0997 nM; in test [2] it was 46.9 nM; in test [3], 0.15 nM; in test [4], 1150 nM; in test [5] it was 5.49 nM; in test [6] it was 20.3 nM.
In the case of `CC[C@H](C)[C@H](NC(=O)[C@H](Cc1ccccc1)NC(=O)[C@H](C)NC(=O)C(C)(C)NC(=O)[C@H](CCC(N)=O)NC(=O)[C@H](C)NC(=O)[C@H](CCCCNC(=O)CC[C@H](NC(=O)CC[C@H](NC(=O)CCCCCCCCCCCCCCCCC(=O)O)C(=O)O)C(=O)O)NC(=O)[C@H](CCCCN)NC(=O)[C@H](CC(=O)O)NC(=O)[C@H](CC(C)C)NC(=O)[C@H](CC(C)C)NC(=O)[C@@H](NC(=O)[C@H](CO)NC(=O)[C@H](Cc1ccc(O)cc1)NC(=O)[C@H](CC(=O)O)NC(=O)[C@H](CO)NC(=O)[C@@H](NC(=O)[C@](C)(Cc1ccccc1F)NC(=O)[C@@H](NC(=O)CNC(=O)[C@H](CCC(N)=O)NC(=O)C(C)(C)NC(=O)[C@@H](N)Cc1c[nH]cn1)[C@@H](C)O)[C@@H](C)O)[C@@H](C)CC)C(=O)N[C@@H](CCC(=O)O)C(=O)N[C@@H](Cc1ccc(O)cc1)C(=O)N[C@@H](CC(C)C)C(=O)N[C@@H](CCC(=O)O)C(=O)N[C@@H](CCC(=O)O)C(=O)NCC(=O)NCC(=O)N1CCC[C@H]1C(=O)N[C@@H](CO)C(=O)N[C@@H](CO)C(=O)NCC(=O)N[C@@H](C)C(=O)N1CCC[C@H]1C(=O)N1CCC[C@H]1C(=O)N1CCC[C@H]1C(=O)N[C@@H](CO)C(N)=O` [Example 426] (H-H[Aib]QGT[αMePhe(2-F)]TSDYSILLDKK([γGlu-γGlu-C18 diacid])AQ[Aib]AFIEYLEEGGPSSGAPPPS-NH2), the EC50 in test [1] is 0.079 nM; in test [2], 29.8 nM; in test [3], 0.139 nM; in test [4], 740 nM; in test [5], 4.33 nM; in test [6], 16.6 nM.
Turning to `CC[C@H](C)[C@H](NC(=O)[C@H](CO)NC(=O)[C@H](Cc1ccc(O)cc1)NC(=O)[C@H](CC(=O)O)NC(=O)[C@H](CO)NC(=O)[C@@H](NC(=O)[C@](C)(Cc1ccccc1F)NC(=O)[C@@H](NC(=O)CNC(=O)[C@H](CCC(N)=O)NC(=O)C(C)(C)NC(=O)[C@@H](N)Cc1ccc(O)cc1)[C@@H](C)O)[C@@H](C)O)C(=O)N[C@@H](CC(C)C)C(=O)N[C@@H](CC(C)C)C(=O)N[C@@H](CC(=O)O)C(=O)N[C@@H](CCCN)C(=O)N[C@@H](CCCCNC(=O)COCCOCCNC(=O)COCCOCCNC(=O)CC[C@H](NC(=O)CCCCCCCCCCCCCCCCC(=O)O)C(=O)O)C(=O)N[C@@H](C)C(=O)N[C@@H](CCC(N)=O)C(=O)NC(C)(C)C(=O)N[C@@H](C)C(=O)N[C@@H](Cc1ccccc1)C(=O)N[C@H](C(=O)N[C@H](CCC(=O)O)C(=O)N[C@@H](Cc1ccc(O)cc1)C(=O)N[C@@H](CC(C)C)C(=O)N[C@@H](CC(C)C)C(=O)N[C@@H](CCC(=O)O)C(=O)NCC(=O)NCC(=O)N1CCC[C@H]1C(=O)N[C@@H](CO)C(=O)N[C@@H](CO)C(=O)NCC(=O)N[C@@H](C)C(=O)N1CCC[C@H]1C(=O)N1CCC[C@H]1C(=O)N1CCC[C@H]1C(=O)N[C@@H](CO)C(N)=O)[C@@H](C)CC` [Example 427], the concentration for a half-maximal effect (EC50) in test [1] worked out at 0.0121 nM; in test [2], 4.25 nM; in test [3] it was 0.282 nM; in test [4] it was 1440 nM; in test [5], 3.81 nM; in test [6], 42.9 nM.
For the molecule `CC[C@H](C)[C@H](NC(=O)[C@H](CO)NC(=O)[C@H](Cc1ccc(O)cc1)NC(=O)[C@H](CC(=O)O)NC(=O)[C@H](CO)NC(=O)[C@@H](NC(=O)[C@](C)(Cc1ccccc1F)NC(=O)[C@@H](NC(=O)CNC(=O)[C@H](CCC(N)=O)NC(=O)C(C)(C)NC(=O)[C@@H](N)Cc1ccc(O)cc1)[C@@H](C)O)[C@@H](C)O)C(=O)N[C@@H](CC(C)C)C(=O)N[C@@H](CC(C)C)C(=O)N[C@@H](CC(=O)O)C(=O)N[C@@H](CCCN)C(=O)N[C@@H](CCCCNC(=O)CC[C@H](NC(=O)CC[C@H](NC(=O)CCCCCCCCCCCCCCCCC(=O)O)C(=O)O)C(=O)O)C(=O)N[C@@H](C)C(=O)N[C@@H](CCC(N)=O)C(=O)NC(C)(C)C(=O)N[C@@H](C)C(=O)N[C@@H](Cc1ccccc1)C(=O)N[C@H](C(=O)N[C@H](CCC(=O)O)C(=O)N[C@@H](Cc1ccc(O)cc1)C(=O)N[C@@H](CC(C)C)C(=O)N[C@@H](CC(C)C)C(=O)N[C@@H](CCC(=O)O)C(=O)NCC(=O)NCC(=O)N1CCC[C@H]1C(=O)N[C@@H](CO)C(=O)N[C@@H](CO)C(=O)NCC(=O)N[C@@H](C)C(=O)N1CCC[C@H]1C(=O)N1CCC[C@H]1C(=O)N1CCC[C@H]1C(=O)N[C@@H](CO)C(N)=O)[C@@H](C)CC` [Example 428], the EC50 in test [1] worked out at 0.01 nM; in test [2], 4.55 nM; in test [3], 0.207 nM; in test [4], 536 nM; in test [5], 2.35 nM; in test [6], 38.2 nM.
As for `CC[C@H](C)[C@H](NC(=O)[C@H](CCCCN)NC(=O)[C@H](CC(=O)O)NC(=O)[C@H](CC(C)C)NC(=O)[C@H](CC(C)C)NC(=O)[C@@H](NC(=O)[C@H](CO)NC(=O)[C@H](Cc1ccc(O)cc1)NC(=O)[C@H](CC(=O)O)NC(=O)[C@H](CO)NC(=O)[C@@H](NC(=O)[C@](C)(Cc1ccccc1F)NC(=O)[C@@H](NC(=O)CNC(=O)[C@H](CCC(N)=O)NC(=O)C(C)(C)NC(=O)[C@@H](N)Cc1ccc(O)cc1)[C@@H](C)O)[C@@H](C)O)[C@@H](C)CC)C(=O)N[C@@H](C)C(=O)N[C@@H](CCC(N)=O)C(=O)NC(C)(C)C(=O)N[C@@H](C)C(=O)N[C@@H](Cc1ccccc1)C(=O)N[C@H](C(=O)N[C@@H](CCCCNC(=O)COCCOCCNC(=O)CC[C@H](NC(=O)CCCCCCCCCCCCCCCCC(=O)O)C(=O)O)C(=O)N[C@@H](Cc1ccc(O)cc1)C(=O)N[C@@H](CC(C)C)C(=O)N[C@@H](CCC(=O)O)C(=O)N[C@@H](CCC(=O)O)C(=O)NCC(=O)NCC(=O)N1CCC[C@H]1C(=O)N[C@@H](CO)C(=O)N[C@@H](CO)C(=O)NCC(=O)N[C@@H](C)C(=O)N1CCC[C@H]1C(=O)N1CCC[C@H]1C(=O)N1CCC[C@H]1C(=O)N[C@@H](CO)C(N)=O)[C@@H](C)CC` [Example 430] (H-Y[Aib]QGT[αMePhe(2-F)]TSDYSILLDKIAQ[Aib]AFIK([AEEA-γGlu-C18 diacid])YLEEGGPSSGAPPPS-NH2; N-terminus assumed), the concentration for a half-maximal effect (EC50) came out at 0.0144 nM in test [1]; 4.65 nM in test [2]; 0.438 nM in test [3]; 559 nM in test [4]; 2.11 nM in test [5]; 78.9 nM in test [6].

Source of the values: patent publication US20240270821A1, “GIP/GLP1/GCG TRI-RECEPTOR AGONISTS AND USES THEREOF” (priority 2023, published 2024).
